Experimental data taken from patent US9938324B2, “FRET-based reagents and methods for identifying anti-HIV compounds” (Cornell University, priority 2012, dated 2018).

Columns and labels:
[1] = tested on: HIV-1 EnvNL4-3; assay: smFRET imaging of dually labelled HIV-1 Env on surface-immobilized virions (TIRF); format: biochemical, HIV-1NL4-3; conditions: for agonist/antagonist character by smFRET (activation of HIV-1 Env): 100 μM, FIG. 10c, d; for effect of inhibitor on smFRET state distribution of HIV-1 Env: tested at concentrations 10-100-fold above the Kd (100 μM), FIG. 10
Procedure: All HIV-1 virions were generated by transfection of pNL4-3-based plasmids in HEK293T cells. Virus was harvested 24 h post-transfection and concentrated by centrifugation. Dually tagged viruses were site-specifically labelled at each peptide insert simultaneously through incubation with appropriate fluorophore conjugates and labelling enzymes. The viruses were purified away from unbound dye by density-gradient ultracentrifugation. Viruses were immobilized on streptavidin-coated quartz microscope slides, and imaged with a lab-built prism-based TIRF microscope equipped with multiple laser. Donor and acceptor fluorescence were separated with a dichroic filter, and imaged on parallel EMCCD cameras. All analysis was carried out with custom-designed Matlab software.
The tagged Envs (V1-3-Q3/V4-2-A1 and V1-3-A1/V4-2-A1) were subcloned from pNL4-3 into a pNL4-3 construct lacking reverse transcriptase (pNL4-3 ΔRT). Virus for smFRET experiments was generated by co-transfecting HEK293T cells with tagged-Env-containing pNL4-3 ΔRT and a 40-fold excess of wild-type-Env containing pNL4-3 ΔRT. Virus was harvested 24 h post-transfection and concentrated by centrifugation over a 15% sucrose cushion.
All virus labelling reactions were carried out in buffer containing 50 mM HEPES pH7.5, 10 mM MgCl2, 10 mM CaCl2. Virus containing the V1-3-Q3 and V4-2-A1 peptide insertions was labelled by incubation with 0.5 μM AlexaFluor647-cadaverine (Invitrogen), 0.5 μM Cy3-coenzyme A (Cy3-CoA), 0.65 μM transglutaminase (Sigma) (Lin et al., J Am Chem Soc 128, no. 14 (2006): 4542-3), and 5 μM AcpS (Zhou et al., ACS Chem Biol 2, no. 5 (2007): 337-46) for 2 h at 37° C. Alternatively, virus containing the V1-3-A1 and V4-2-A1 peptide insertions was labelled by incubation with 0.5 μM Cy5-CoA, 0.5 μM Cy3-CoA, and 5 μM AcpS for 2 h at 37° C. […]
Fluorescently labelled virus, containing DSPE-PEG2,000-biotin in the viral membrane was immobilized on passivated streptavidin-coated quartz microscope slides and imaged on a lab-built prism-based TIRF microscope. […] Donor and acceptor fluorescence were collected through a high-NA objective, separated with a 650DCXR dichroic filter (Chroma), and imaged on two parallel EMCCD cameras (Photometrics). Movies of surface-immobilized viruses were recorded at 25 frames/s for 40 s at room temperature. […]
All processing and analysis of fluorescence and smFRET trajectories was carried out using custom-designed Matlab (Mathworks) software. Fluorescence trajectories were extracted from the recorded movies and used to calculate FRET efficiency according to FRET=ICy5/(ICy3+ICy5), where ICy5 and ICy3 are the intensities of Cy5 and Cy3 fluorescence, respectively. […]

[2] = biological target: HIV-1 Env (Human immunodeficiency virus type 1 group M subtype B, UniProt P03375); conditions: cited from earlier work
Sequence of HIV-1 Env (P03375 33-856): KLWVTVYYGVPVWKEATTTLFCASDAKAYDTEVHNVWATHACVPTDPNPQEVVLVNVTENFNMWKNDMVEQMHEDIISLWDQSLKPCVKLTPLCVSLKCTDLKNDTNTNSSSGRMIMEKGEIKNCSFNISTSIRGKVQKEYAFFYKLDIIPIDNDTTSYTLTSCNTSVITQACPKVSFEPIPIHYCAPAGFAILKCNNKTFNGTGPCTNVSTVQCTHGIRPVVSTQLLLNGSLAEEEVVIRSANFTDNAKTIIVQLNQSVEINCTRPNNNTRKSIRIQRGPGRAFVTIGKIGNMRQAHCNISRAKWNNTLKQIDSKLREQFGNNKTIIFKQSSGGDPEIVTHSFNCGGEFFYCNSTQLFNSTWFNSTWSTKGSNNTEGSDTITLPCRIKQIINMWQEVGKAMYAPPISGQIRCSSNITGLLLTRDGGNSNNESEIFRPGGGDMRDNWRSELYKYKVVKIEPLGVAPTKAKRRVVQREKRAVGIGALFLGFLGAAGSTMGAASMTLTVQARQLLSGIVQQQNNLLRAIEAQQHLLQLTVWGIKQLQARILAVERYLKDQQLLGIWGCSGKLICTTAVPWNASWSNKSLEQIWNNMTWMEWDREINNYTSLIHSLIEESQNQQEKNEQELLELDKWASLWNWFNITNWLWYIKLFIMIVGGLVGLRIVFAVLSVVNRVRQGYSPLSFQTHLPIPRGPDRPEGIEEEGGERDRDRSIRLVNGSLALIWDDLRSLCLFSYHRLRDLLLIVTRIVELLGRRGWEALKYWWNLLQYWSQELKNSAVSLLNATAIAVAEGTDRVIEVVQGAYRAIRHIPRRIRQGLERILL

| Compound | agonist/antagonist character by smFRET (activation of HIV-1 Env) [1] | effect of inhibitor on smFRET state distribution of HIV-1 Env [1] | inactivation of HIV-1 Env [2] |
| --- | --- | --- | --- |
| CC1(C)CC(NC(=O)C(=O)Nc2ccc(Cl)c(F)c2)CC(C)(C)N1 [JRC-II-191] | clear agonists | induced an intermediate-FRET state | inactivate |
| CC1(C)CC(NC(=O)C(=O)Nc2ccc(Cl)cc2)CC(C)(C)N1 [NBD-556] | clear agonists | induced an intermediate-FRET state | – |
